Results reported in ChEMBL document CHEMBL1201862, “PubChem BioAssay data set” (2004).
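Compound exposure: 48 hours, 5 concentrations, 96-well plates. GI50: concentration for 50% inhibition of growth.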 The source made the active and inactive calls. No stated cut-off is given here; in the data, active = GI50 up to about 1.1 µM and inactive = higher.

What was measured:
Assay in all cases: growth of human tumour cells (NCI), 48 h
COLO 205 = system: COLO 205
OVCAR-8 = system: OVCAR-8
ACHN = system: ACHN
HOP-92 = system: HOP-92
SK-MEL-5 = system: SK-MEL-5
SW-620 = system: SW-620
PC-3 = system: PC-3
HOP-62 = system: HOP-62
NCI-H226 = system: NCI-H226
SK-OV-3 = system: SK-OV-3
UACC-257 = system: UACC-257
SK-MEL-2 = system: SK-MEL-2
LOX IMVI = system: LOX IMVI
TK-10 = system: TK-10
A498 = system: A498
UO-31 = system: UO-31
NCI/ADR-RES = system: NCI/ADR-RES
SN12C = system: SN12C
HT-29 = system: HT-29
K562 = system: K562

| Compound | GI50 (COLO 205) | GI50 (OVCAR-8) | GI50 (ACHN) | GI50 (HOP-92) | GI50 (SK-MEL-5) | GI50 (SW-620) | GI50 (PC-3) | GI50 (HOP-62) | GI50 (NCI-H226) | GI50 (SK-OV-3) | GI50 (UACC-257) | GI50 (SK-MEL-2) | GI50 (LOX IMVI) | GI50 (TK-10) | GI50 (A498) | GI50 (UO-31) | GI50 (NCI/ADR-RES) | GI50 (SN12C) | GI50 (HT-29) | GI50 (K562) |
| --- | --- | --- | --- | --- | --- | --- | --- | --- | --- | --- | --- | --- | --- | --- | --- | --- | --- | --- | --- | --- |
| C#CC(O)Cc1ccc(OC)c2occc12 (stereo not given) | > 100 µM (inactive) | > 100 µM (inactive) | > 100 µM (inactive) | > 100 µM (inactive) | > 100 µM (inactive) | > 100 µM (inactive) | > 100 µM (inactive) | > 100 µM (inactive) | > 100 µM (inactive) | > 100 µM (inactive) | > 100 µM (inactive) | > 100 µM (inactive) | > 100 µM (inactive) | > 100 µM (inactive) | > 100 µM (inactive) | > 100 µM (inactive) | > 100 µM (inactive) | > 100 µM (inactive) | > 100 µM (inactive) | > 100 µM (inactive) |
| O=C1c2c(O)ccc(O)c2C(=O)c2c(NCCNC(=O)C(O)C(O)C(O)C(O)CO)ccc(NCCNC(=O)C(O)C(O)C(O)C(O)CO)c21 (stereo not given) | < 0.01 µM (active) | < 0.0231 µM (active) | < 0.01 µM (active) | < 0.01 µM (active) | 0.016 µM (active) | 0.0213 µM (active) | 0.131 µM (active) | 0.011 µM (active) | < 0.0126 µM (active) | < 0.0233 µM (active) | 1.11 µM (active) | 1.08 µM (active) | 0.0134 µM (active) | 0.161 µM (active) | 0.149 µM (active) | 0.0186 µM (active) | 0.133 µM (active) | < 0.01 µM (active) | 0.03 µM (active) | 0.0104 µM (active) |
| NC(=S)N/N=C\c1ccc(OCc2cccc(COc3ccc(/C=N/NC(N)=S)cc3)n2)cc1 | 5.73 µM (inactive) | > 100 µM (inactive) | 9.53 µM (inactive) | > 100 µM (inactive) | 5.06 µM (inactive) | > 100 µM (inactive) | 21.6 µM (inactive) | > 100 µM (inactive) | > 100 µM (inactive) | > 100 µM (inactive) | 20.2 µM (inactive) | 12.5 µM (inactive) | > 100 µM (inactive) | 76.7 µM (inactive) | > 100 µM (inactive) | 15.3 µM (inactive) | > 100 µM (inactive) | > 100 µM (inactive) | > 100 µM (inactive) | 18.6 µM (inactive) |
| CCOC(=O)c1cn2c(n1)sc1cc(Cl)ccc12 | 5.47 µM (inactive) | 21.9 µM (inactive) | 14.5 µM (inactive) | > 100 µM (inactive) | 7.76 µM (inactive) | 4.75 µM (inactive) | 30.6 µM (inactive) | 18.1 µM (inactive) | 72.6 µM (inactive) | 52 µM (inactive) | 26.7 µM (inactive) | > 100 µM (inactive) | 7.78 µM (inactive) | > 100 µM (inactive) | 33.6 µM (inactive) | 7.21 µM (inactive) | 19.6 µM (inactive) | 11.4 µM (inactive) | 17 µM (inactive) | 2.86 µM (inactive) |
| COC(=O)C1=C(OC(=O)/C(=C/c2ccccc2)c2ccc(Cl)cc2Cl)C(C(=O)OC)[C@@]2(O)[C@@H](C(=O)OC)[C@H](C)C[C@@H]1[C@@H]2C(=O)OC (stereo not given in full) | > 100 µM (inactive) | > 100 µM (inactive) | 42 µM (inactive) | > 100 µM (inactive) | 82.8 µM (inactive) | > 100 µM (inactive) | > 100 µM (inactive) | > 100 µM (inactive) | > 100 µM (inactive) | > 100 µM (inactive) | > 100 µM (inactive) | > 100 µM (inactive) | > 100 µM (inactive) | > 100 µM (inactive) | > 100 µM (inactive) | > 100 µM (inactive) | > 100 µM (inactive) | > 100 µM (inactive) | > 100 µM (inactive) | > 100 µM (inactive) |
| N#Cc1c(NC(=O)C(F)(F)F)sc2c3c(=O)c4ccccc4c(=O)c=3oc3ccccc3c12 | 14.7 µM (inactive) | 15.7 µM (inactive) | 21.1 µM (inactive) | 19.7 µM (inactive) | 11.3 µM (inactive) | 25.1 µM (inactive) | 8.93 µM (inactive) | 20.5 µM (inactive) | 8.02 µM (inactive) | 29.4 µM (inactive) | 16.7 µM (inactive) | 15 µM (inactive) | 13 µM (inactive) | 33 µM (inactive) | 33.3 µM (inactive) | 19 µM (inactive) | 24.8 µM (inactive) | 21.9 µM (inactive) | 19.2 µM (inactive) | 19.8 µM (inactive) |
| C=CCCCCCCCCCOC1C=CC(O)C(CO)O1 (stereo not given) | 37.1 µM (inactive) | 17.5 µM (inactive) | 46.5 µM (inactive) | 33.5 µM (inactive) | 20.3 µM (inactive) | 43.5 µM (inactive) | 26.5 µM (inactive) | 50.5 µM (inactive) | > 100 µM (inactive) | 83.6 µM (inactive) | 23.7 µM (inactive) | 35.7 µM (inactive) | 31.6 µM (inactive) | 36.7 µM (inactive) | 99.5 µM (inactive) | 35.8 µM (inactive) | 43.6 µM (inactive) | 49.5 µM (inactive) | 22.6 µM (inactive) | 20.6 µM (inactive) |
| Cc1ccc(C(=O)/C=C2/Nc3ccccc3NC2=O)c(C)c1 | 62.1 µM (inactive) | 5.28 µM (inactive) | 8.36 µM (inactive) | 3.04 µM (inactive) | 19 µM (inactive) | 27.2 µM (inactive) | 18.2 µM (inactive) | 5.62 µM (inactive) | 10.8 µM (inactive) | 7.05 µM (inactive) | 42.1 µM (inactive) | 46.5 µM (inactive) | 22.6 µM (inactive) | 5.58 µM (inactive) | 0.228 µM (active) | 8.32 µM (inactive) | 7.89 µM (inactive) | 16 µM (inactive) | 23.4 µM (inactive) | 61.5 µM (inactive) |
| CCOC(=O)C1C(=O)CC(O)(c2ccccc2)C(C(=O)OCC)C1c1ccc(OC)cc1 (stereo not given) | 12.8 µM (inactive) | 33.4 µM (inactive) | 43.4 µM (inactive) | 15.3 µM (inactive) | 19.1 µM (inactive) | 12.2 µM (inactive) | 16.4 µM (inactive) | 25.5 µM (inactive) | 32.4 µM (inactive) | 15.8 µM (inactive) | 58.3 µM (inactive) | 20.1 µM (inactive) | 18.7 µM (inactive) | 65.5 µM (inactive) | 42.2 µM (inactive) | 61.2 µM (inactive) | 19.6 µM (inactive) | 40.7 µM (inactive) | 6.82 µM (inactive) | 5.27 µM (inactive) |
| COc1ccc(-c2cc(=O)c3c(O)c(OC)c(OC)c(OC)c3o2)cc1OC [5-DEMETHYLNOBILETIN] | > 100 µM (inactive) | > 100 µM (inactive) | > 100 µM (inactive) | 3.73 µM (inactive) | 27.4 µM (inactive) | > 10 µM (inactive) | > 100 µM (inactive) | 19.5 µM (inactive) | > 100 µM (inactive) | 20.4 µM (inactive) | > 100 µM (inactive) | 91.2 µM (inactive) | 47.8 µM (inactive) | 67.1 µM (inactive) | > 100 µM (inactive) | > 100 µM (inactive) | 14.5 µM (inactive) | > 100 µM (inactive) | > 100 µM (inactive) | > 100 µM (inactive) |
| COc1ccc(NC(=S)N/N=C/c2cccc(C)n2)cc1 | 2.63 µM (inactive) | 3.74 µM (inactive) | 2.83 µM (inactive) | 5.65 µM (inactive) | 3.95 µM (inactive) | 2.86 µM (inactive) | 4.58 µM (inactive) | 4.32 µM (inactive) | 10.2 µM (inactive) | 4.61 µM (inactive) | 2.53 µM (inactive) | 6.4 µM (inactive) | 3.65 µM (inactive) | 8.13 µM (inactive) | 18.8 µM (inactive) | 3.33 µM (inactive) | 2.78 µM (inactive) | 5.79 µM (inactive) | 3.94 µM (inactive) | 1.62 µM (inactive) |
| CC(C)(C)OC(=O)CN1CCN(CC(=O)N2CCN(C(=O)OCc3ccccc3)CC2)CCN(CC(=O)OC(C)(C)C)CCN(CC(=O)N2CCN(C(=O)OCc3ccccc3)CC2)CC1 | 1.15 µM (inactive) | 2.83 µM (inactive) | 7.73 µM (inactive) | 2.6 µM (inactive) | 1.71 µM (inactive) | 1.67 µM (inactive) | 2.51 µM (inactive) | 3.7 µM (inactive) | 3.84 µM (inactive) | 3.47 µM (inactive) | 2.54 µM (inactive) | 1.82 µM (inactive) | 1.25 µM (inactive) | 5.92 µM (inactive) | 15.4 µM (inactive) | 12.7 µM (inactive) | 14.3 µM (inactive) | 2.76 µM (inactive) | 0.318 µM (active) | 0.989 µM (active) |
